Reference: paper PMC6127092, “Polymeric nanocapsules embedded with ultra-small silver nanoclusters for synergistic pharmacology and improved oral delivery of Docetaxel” (Scientific Reports, 2018)

Key:
Swiss albino mice [1] = settings: mouse, in vivo
Description: After 14 days, the complete blood count (CBC) was performed on blood and plasma was carefully collected and LFTs, RFTs, glucose, total protein and cholesterol were analyzed.

[2] = test system: breast cancer (MDA-MB-231) cell line; assay: Cytotoxic synergism study, MTT assay; settings: MDA-MB-231, MTT, 24 h
Description: The cells were seeded in 96-well plate having 6000 cells/well in fetal bovine serum supplemented Dulbecco’s Modified Eagles Medium (DMEM/FBS) solution. […] Untreated cells with 100% viability were taken as control and the cells without addition of MTT were used as blank to calibrate the instrument. IC50 values for each formulation was calculated using Graphpad Prism 6.02 software[19].

[3] = rabbit, in vivo, cited from earlier work
[4] = Oral bioavailability and pharmacokinetics; format: in vivo, rabbits; settings: rabbit
Description: All the animal studies were conducted in compliance to the approved protocol of Bio-Ethical Committee of Quaid-i-Azam University Islamabad, Pakistan (Protocol No. BEC-FBS-QAU-20). Oral bioavailability studies of NCs were conducted in rabbits. The rabbits were divided into 3 groups (n=5) and kept in the animal house with free access to food and water. […] The samples (10mg/kg) were orally administered through gavage needle. Blood samples were withdrawn from ear marginal vein of each rabbit at predefined time interval using 1 ml sterile syringe each time. The plasma was separated from blood samples and stored at -20 °C till further used for analysis.^7,8 The drug was extracted from plasma samples and was analyzed using HPLC method described earlier.

[5] = In vitro DTX release and release model fitting; format: physicochemical
Text: Error bar represents Mean ± S.D. of three experiments.
To further probe into the release mechanism, different mathematical models were applied to the dissolution data.

[6] = Biocompatibility, trypan blue assay; format: cell-based; settings: fresh human macrophages isolated from blood
Description: The biocompatibility of the NCs and DTX-Ag-NCPs was assessed against the fresh human macrophages. The macrophages were isolated from fresh human blood using Ficoll-Gastrografin gradient method.^6 Macrophages were suspended in RPMI media and incubated in CO2 incubator.

Swiss albino mice [7] = assay: Acute oral toxicity (OECD 425), observation; settings: 10 mg/kg, 14 days
Description: (§1) Female Swiss albino mice weighing 32 ± 5 g, were divided into 4 groups (n = 5) and were kept to free access of food and water at controlled environment. […] The dose (10 mg/kg) was administered orally through gavage. […] After 14 days, the blood was withdrawn for serum biochemistry analysis and mice were sacrificed for tissue histology studies[49].

Swiss albino mice [8] = settings: mouse, in vivo, po, 10 mg/kg
Description: as §1

[9] = model fitted to dissolution data

**Q.** What does the source list for `CC(=O)O[C@@]12CO[C@@H]1C[C@H](O)[C@@]1(C)C(=O)[C@H](O)C3=C(C)[C@@H](OC(=O)[C@H](O)[C@@H](NC(=O)OC(C)(C)C)c4ccccc4)C[C@@](O)([C@@H](OC(=O)c4ccccc4)[C@H]21)C3(C)C` [DTX, Docetaxel]?
**A.** Hb (Swiss albino mice [1]): 13.20 ± 6.37; MCH (Swiss albino mice [1]): 15.54 ± 4.35; MCV (Swiss albino mice [1]): 57.57 ± 5.52; MPV (Swiss albino mice [1]): 7.11 ± 4.91; PCV (Swiss albino mice [1]): 54.37 ± 11.93; Platelets (Swiss albino mice [1]): 632 ± 87.57; RBC (Swiss albino mice [1]): 6.86 ± 4.91; RDW % (Swiss albino mice [1]): 16.92 ± 6.63%; Serum glutamic pyruvic transaminase (SGPT) (Swiss albino mice [1]): highest level; WBC (Swiss albino mice [1]): 12.45 ± 7.63; IC50 [2]: 14.32 µg/mL; Minimum toxic concentration ([3]; iv): 2700 ng/mL; Minimum effective concentration [3]: 35 ng/mL; Cmax ([4]; plasma, 10 mg/kg): 41.8 ng/mL; Tmax ([4]; plasma, 10 mg/kg): 5 h; AUC(0-t) ([4]; plasma, 10 mg/kg, read-out: AUC0–24): 441 ng·h/mL; MRT inf ([4]; plasma, 10 mg/kg, read-out: MRT0-inf_obs): 26.2 h; AUMC0-inf_obs ([4]; 10 mg/kg): 19100.51 ng/ml*h^2; Cl/F_obs ([4]; 10 mg/kg): 0.014 (mg)/(ng/ml)/h; t1/2 ([4]; 10 mg/kg, plasma): 18.039 h; Time plasma level remained above minimum effective concentration / within therapeutic window ([4]; MEC 35 ng/mL): 3 h; half-life ([4]; plasma, po, 10 mg/kg): 18 h; F ([4]; relative to DTX control): 1; Cumulative DTX release ([5]; 24 h, phosphate buffer, 37 °C): about 53%; Higuchi KH [5, 9]: 10.98; Hixon-Crowell KHC [5, 9]: 0.01; Korsmeyer-Peppas N (release exponent) [5, 9]: 0.56; Zero Order Ko [5, 9]: 3.06; viability at 24 h, 50 µg/ml [6]: ~65%; Mortality and change in body weights (Swiss albino mice [7]): No mortality and significant change in body weights; Visible changes in skin, fur or behavioral pattern (Swiss albino mice [8]): no visible changes
